Measurements taken from US20250268931A1, “TRANSCRIPTIONAL INHIBITOR FOR IMMUNE-RELATED GENE” (The University of Tokyo, priority 2022, published 2025).

Tests used:
IFN-β [1] = test: IFN-β concentration in culture supernatant of LPS-stimulated Raw264.7 cells (ELISA); assay type: cell-based; conditions: PIPA 1, 3 or 10 μM 24 h, then LPS 20 ng/mL 16 h
Procedure: Raw264.7 cells, a macrophage cell line, were seeded on a 96-well plate at a cell density of 2×10^4 cells/well, and were then culture for 8 hours for adhesion. Thereafter, IRF-PIPA was added to the cultured cells to final concentrations of 1, 3, or 10 μM. After completion of the culture for 24 hours, LPS was added to the cultured cells to a final concentration of 20 ng/mL, and the obtained mixture was then cultured for 16 hours, followed by the recovery of the supernatant. The supernatant was 2-fold diluted with 1% BSA-PBS, and the IFN-β concentration was then measured by ELISA.
Raw264.7 cells, a cell line, were purchased from RIKEN Cell Bank, and were then cultured using D-MEM (Nacalai Tesque) containing 10% FBS (SIGMA-ALDRICH) and Penicillin-Streptomycin mixed solution (Nacalai Tesque).
(§1) 2×10^4 Raw264.7 cells were seeded on a plate, and were then treated with IRF-PIPA 1, IRF-PIPA 2, IRF-PIPA 3 or IRF-PIPA 4 for 24 hours. Thereafter, the cells were stimulated with LPS (Lipopolysaccharide, SIGMA-ALDRICH) for 16 hours, and the culture supernatant was then recovered. The concentration of cytokine in the culture supernatant was measured using ELISA kit (R&D SYSTEMS) according to the standard protocols. The culture supernatant was diluted with 1% BSA-PBS, as necessary, and was then analyzed. 2.5×10^5 Mouse peritoneal macrophages were seeded on a plate, and were then treated with IRF-PIPA 3 for 16 or 24 hours. Thereafter, the cells were stimulated with Poly(I:C) (InvivoGen) for 16 hours or with mRNA vaccine (Moderna) for 20 to 24 hours, and the culture supernatant was then recovered. The concentration of cytokine in the culture supernatant was measured using ELISA kit (R&D SYSTEMS) according to the same standard protocols. On the other hand, the concentration of cytokine in mouse plasma was measured by administering 400 μg/mouse IRF-PIPA 3 into the abdominal cavity of wild-type mice, then administering 250 μg of Poly(I:C) into the same abdominal cavity 24 hours after the IRF-PIPA 3 administration, then collecting blood further 2 hours after the Poly(I:C) administration, and then measuring the cytokine concentration in the plasma using ELISA kit (R&D SYSTEMS) according to standard protocols.

IFN-β, IL-6 and TNF-α [2] = test: Cytokine concentration in culture supernatant of Poly(I:C)-stimulated peritoneal macrophages (ELISA); assay type: cell-based, mice; conditions: 3 or 10 μM 24 h, Poly(I:C) 1 μg/mL 16 h
Procedure: Peritoneal macrophages were harvested from wild-type mice, and were then seeded on a 96-well plate at a cell density of 2.5×10^5 cells/well, followed by culturing for 2 hours. Thereafter, the cultured cells were washed twice with PBS. Subsequently, IRF-PIPA 3 was suspended in 10% FBS-RPMI or D-MEM to a final concentration of 3 or 10 µM, and was then added to the wells. After completion of the culture for 24 hours, Poly(I:C) was added to the cultured cells to a final concentration of 1 μg/mL, and the obtained mixture was then cultured for 16 hours. The supernatant was recovered, and the concentrations of IFN-β, IL-6, and TNF-α were then measured by ELISA.
Mouse peritoneal macrophages were harvested from 6-week-old CL57B/6 mice (CLEA Japan, Inc.) by peritoneal lavage using 7 mL of PBS (Nacalai Tesque), and the cells adhered to the culture plate by culture for 2 hours were used in experiments. The culture was carried out using an RPMI or D-MEM medium (Nacalai Tesque) containing 10% FBS (SIGMA-ALDRICH) and Penicillin-Streptomycin mixed solution (Nacalai Tesque). The CL57B/6 mice were bred in an SPF environment.
as §1, with “Thereafter, the cells were stimulated with LPS (Lipopolysaccharide, SIGMA-ALDRICH) for 16 hours, and the culture supernatant was then recovered.” left out, “2.5×10^5 Mouse peritoneal macrophages were seeded on a plate, and were then treated with IRF-PIPA 3 for 16 or 24 hours. Thereafter, the cells were stimulated with Poly(I:C) (InvivoGen) for 16 hours or with mRNA vaccine (Moderna) for 20 to 24 hours, and the culture supernatant was then recovered.” left out

peritoneal macrophages = test: Cytotoxic activity: dsDNA concentration and LDH activity in culture supernatant; assay type: cell-based, mice
Procedure: In order to verify the cytotoxic activity of IRF-PIPA 3, dsDNA concentration (left view in the figure) and LDH concentration (right view in the figure) in the culture supernatant were measured. The same experiment as that in FIG. 2 was carried out, and the culture supernatant was recovered. A lysate obtained by mixing 2.5×10^5 peritoneal macrophages with 90 μL of 10% FBS-RPMI or D-MEM medium and 10 μL of Lysis Buffer, and then disrupting the cells, was used as a positive control. […] Using Octet K2, the binding of each concentration of IRF-PIPA 3 shown in the figure and a target DNA sequence was analyzed. After mixing a PIPA solution with target DNA, the binding of the two substances was measured for 60 seconds. […] From changes in the binding and dissociation at each concentration over time, a Kd value was calculated as a dissociation constant indicating a binding force.
The concentration of dsDNA in the culture supernatant was measured using Nano drop one (Thermo Fisher SCIENTIFIC). In LDH assay, LDH activity was measured using Cytotoxicity LDH Assay Kit-WST (DOJINDO LABORATORIES) according to standard protocols. As a positive control, a lysate obtained by mixing 2.5×10^5 peritoneal macrophages with 90 μL of 10% FBS-RPMI or D-MEM medium and 10 μL of Lysis Buffer, and then disrupting the cells, was used.

IFN-β, IL-6 and TNF-α [3] = test: In vivo cytokine protein concentration in plasma after Poly(I:C) (ELISA); design: species or system mice
Procedure: […] Two hours after the administration of Poly(I:C), blood was collected, and individual protein concentrations of IFN-β, IL-6 and TNF-α in the plasma were then measured by an ELISA method.
as §1

IFN-β [4] = test: IFN-β transcription in peritoneal macrophages treated with mRNA vaccine against SARS-COV-2 (qRT-PCR, ELISA); assay type: cell-based, mice; conditions: 3 μM or 10 μM, mRNA vaccine (Moderna) 1 μg/mL 20 hours
RBD = RBD concentration in plasma after mRNA vaccine plus Poly(I:C) (ELISA); assay type: in vivo, mice; conditions: 400 μg/mouse i.m. or i.p., 24 h later mRNA vaccine 1 μg/mouse i.m. plus Poly(I:C) 250 μg/mouse, blood one day later
[5] = peritoneal macrophages, same experiment as FIG. 2 (3 or 10 μM)
[6] = 400 μg/mouse i.p., Poly(I:C) 250 μg/mouse i.p. 24 hours, 1, 4 or 7 days later, blood 2 h later
[7] = plasma IFN-β, IL-6, TNF-α, Poly(I:C) 1, 4 or 7 days after IRF-PIPA 3

## CC(=O)Nc1cn(C)c(C(=O)Nc2cc(C(=O)NCCC(=O)Nc3cc(C(=O)Nc4cn(C)c(C(=O)NCCC(=O)Nc5cn(C)c(C(=O)NCCCC(=O)Nc6cc(C(=O)Nc7cc(C(=O)Nc8cc(C(=O)NCCC(=O)Nc9cc(C(=O)Nc%10cc(C(=O)NCCC(=O)NCCCN(C)C)n(C)c%10)n(C)c9)n(C)c8)n(C)c7)n(C)c6)n5)n4)n(C)c3)n(C)c2)n1 [IRF-PIPA 3]
IFN-β [1]
  concentration dependence of suppression of IFN-β production: concentration-dependent suppression was observed
IFN-β [1]; ELISA of supernatant
  suppression of IFN-β production: strongest suppressive action among the 4 PIPAs
IFN-β, IL-6 and TNF-α [2]
  suppression of IFN-β production: strongly suppresses IFN-β production in a concentration-dependent manner
  suppression of IL-6: suppressed, although less strongly than IFN-β
  suppression of TNF-α: suppressed, although less strongly than IFN-β
Peritoneal macrophages; concentration range in which IRF-PIPA 3 shows strong suppressive action
  cytotoxic activity: does not exhibit cytotoxic activity
Peritoneal macrophages; [5]
  LDH activity in the culture supernatant: not increased at all
  amount of DNA in the culture supernatant: not increased at all
IFN-β, IL-6 and TNF-α [3]; [6]
  IFN-β protein concentration in plasma: significantly suppressed
  IL-6 protein concentration in plasma: significantly suppressed
  TNF-α protein concentration in plasma: significantly suppressed
IFN-β, IL-6 and TNF-α [3]; [7]
  time after administration of highest suppressive effect: 1 days
  time after administration until which the suppressive effect was sustained (attenuated): ≥ 7 days
IFN-β [4]
  IFN-b transcription after addition of the mRNA vaccine (Ifnb1 relative expression, IFN-β concentration): strongly suppressed IFN-b transcription after addition of the mRNA vaccine in a concentration-dependent manner
RBD
  concentration of the RBD protein in plasma: a decrease in the concentration of the RBD protein caused by Poly(I: C) was suppressed
